Laboratory results taken from patent publication US8012471B2, “Screening and treatment methods using IGS5 enzymes of the metalloprotease family” (Abbott Healthcare Products B.V., priority 1999, dated 2011).
Entries after “also recorded” stand apart in the source; their conditions may differ. Marks after values point to notes of the source that are not given here. Starred links: 1 amine or outer side, 2 acyl side, 3 side chain; linkers in the order of their positions; H or OH if unused. Non-standard residues stand in square brackets, D forms with d. No end group written: not given here. *: point of attachment. Dpa = quench label, O=C([C@H](CNc1ccc([N+](=O)[O-])cc1[N+](=O)[O-])N[*:1])[*:2]; Mca = COc1ccc2c(CC(=O)*)cc(=O)oc2c1

What was measured:
[1] = biological target: T1, SEP (soluble secreted endopeptidase) (Mus musculus, UniProt Q9JLI3); settings: 100 μl assay volume; 10 μg partially purified SEP; 0.5 μM substrate; 12 h, 37° C.; cited from earlier work
T1 sequence (Q9JLI3 1-765): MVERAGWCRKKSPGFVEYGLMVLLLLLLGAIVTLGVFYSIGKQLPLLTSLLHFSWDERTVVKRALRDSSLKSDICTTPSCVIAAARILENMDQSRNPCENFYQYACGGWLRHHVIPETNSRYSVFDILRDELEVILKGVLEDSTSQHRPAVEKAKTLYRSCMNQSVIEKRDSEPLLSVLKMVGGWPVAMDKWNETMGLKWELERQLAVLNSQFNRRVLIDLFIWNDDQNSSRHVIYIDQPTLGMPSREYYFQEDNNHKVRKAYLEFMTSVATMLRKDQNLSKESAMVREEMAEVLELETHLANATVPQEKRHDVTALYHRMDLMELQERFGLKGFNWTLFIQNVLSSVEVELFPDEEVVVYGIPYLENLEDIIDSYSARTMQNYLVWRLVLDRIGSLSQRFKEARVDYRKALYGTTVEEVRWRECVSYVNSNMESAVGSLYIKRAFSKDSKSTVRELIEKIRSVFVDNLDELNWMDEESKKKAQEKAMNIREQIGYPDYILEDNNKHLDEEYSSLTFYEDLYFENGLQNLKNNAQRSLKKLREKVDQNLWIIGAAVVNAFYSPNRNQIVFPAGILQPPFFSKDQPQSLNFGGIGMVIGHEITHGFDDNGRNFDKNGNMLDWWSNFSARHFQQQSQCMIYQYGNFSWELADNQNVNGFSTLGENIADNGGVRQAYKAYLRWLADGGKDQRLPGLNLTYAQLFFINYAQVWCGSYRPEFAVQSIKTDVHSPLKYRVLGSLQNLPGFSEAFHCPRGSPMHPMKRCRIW

[2] = biological target: T2, IGS5 polypeptide (His6-tagged IGS5 ectodomain) (Homo sapiens, UniProt Q495T6, V306M); assay: Hydrolysis of vasoactive peptides and PACAP(1-27) by IGS5 polypeptide (HPLC); format: biochemical; settings: for % Hydrolysis by IGS5 Polypeptide: 0.5 μM substrate, 2 h, 37° C.
T2 construct: made in house; host or cells: Spodoptera frugiperda Sf9 (baculovirus IGBV73)
T2 sequence (Q495T6 with tags, fused parts or gaps V306M): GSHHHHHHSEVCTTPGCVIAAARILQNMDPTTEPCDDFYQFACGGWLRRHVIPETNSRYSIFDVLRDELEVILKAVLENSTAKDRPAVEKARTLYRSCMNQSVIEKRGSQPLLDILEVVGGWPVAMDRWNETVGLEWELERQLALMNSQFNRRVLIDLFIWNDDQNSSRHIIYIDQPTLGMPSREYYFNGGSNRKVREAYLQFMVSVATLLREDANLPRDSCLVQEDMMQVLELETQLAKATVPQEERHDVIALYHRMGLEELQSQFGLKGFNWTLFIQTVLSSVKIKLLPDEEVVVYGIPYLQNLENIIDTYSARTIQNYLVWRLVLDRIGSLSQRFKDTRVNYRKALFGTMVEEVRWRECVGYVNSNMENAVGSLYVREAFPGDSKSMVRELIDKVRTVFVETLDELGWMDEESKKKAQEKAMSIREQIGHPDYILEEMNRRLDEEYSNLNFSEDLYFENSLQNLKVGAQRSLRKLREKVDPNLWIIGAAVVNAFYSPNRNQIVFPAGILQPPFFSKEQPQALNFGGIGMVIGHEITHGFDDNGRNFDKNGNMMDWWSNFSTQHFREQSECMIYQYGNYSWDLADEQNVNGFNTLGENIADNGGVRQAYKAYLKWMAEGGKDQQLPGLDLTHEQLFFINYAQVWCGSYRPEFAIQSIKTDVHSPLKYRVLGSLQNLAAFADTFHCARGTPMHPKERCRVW
Experimental: (§1) The enzymatic activity of IGS5 polypeptides of the invention was tested with regard to the metabolism of biologically active peptides. In particular it was tested whether these IGS5 polypeptides may act on a variety of vasoactive peptides known in the state of the art e.g. such like atrial natriuretic peptide (ANP), bradykinin, big endothelin (Big ET-1), endothelin (ET-1), substance P and angiotensin-1. In the context of the present invention in particular it was tested whether the IGS5 ectodomain, which is a novel human metalloprotease, hydrolyzes said vasoactive peptides. For comparison the assay was also performed for a known member of the metalloprotease family which was described earlier as soluble secreted endopeptidase (SEP) by Ikeda, Emoto et al. (J. Biol. Chem., Vol. 274 (1999): pp. 32469-32477). Furthermore, it was tested whether the activity of IGS5 to convert a Big-ET-1 analogue (the so-called 17 aa Big-ET) may be inhibited by reference compounds that are used to determine the inhibition properties with regard to enzymes having ECE and/or NEP-characteristics. […] It was then checked whether the activity of IGS5 to convert PACAP(1-27) may be inhibited by a compound known to be a IGS5 inhibitor. The compound used to test the inhibition of IGS5-activity on PACAP(1-27) was the active metabolite of (3S,2′R)-3-{1-[2′-(ethoxycarbonyl)-4′-phenylbutyl]-cyclopentane-1-carbonylamino}-2,3,4,5-tetrahydro-2-oxo-1H-1-benzazepine-1-acetic acid (compound Ia-2 from WO 02/094176).
The enzymatic reaction was subsequently terminated by heating to 95° C. for 5 min. After centrifugation (Heraeus Biofuge B, 3 min) the supernatant was subjected to HPLC
(§2) In order to separate the remaining substrate from the cleavage products reversed phase HPLC technique was used with a CC 125/4 Nucleosil 300/5 C18 RP column and a CC 8/4 Nucleosil 100/5 C18 precolumn (commercially available from Macherey-Nagel, Duren, Germany). Thus, 60 μl of the reaction samples obtained in Example 7B were injected into the HPLC, and the column was eluted at a flow rate of 1 ml/min by applying the following gradient and solutions: […]
(§3) Peptides were detected by absorbance at 214 nm (UV spectroscopy) and/or by fluorescence with an excitation wavelength of 328 nm and an emission wavelength of 393 nm.
% Hydrolysis: For detection of substrate cleavage, the percentage of hydrolysis was calculated by directly comparing the substance peak areas in HPLC traces of the sample without addition of any IGS5 enzyme activity (blank) and of the samples with addition of IGS5 enzyme (sample). % hydrolysis was calculated on basis of the respective peak areas. % hydrolysis=100*(1−(Asample/Ablank))

[3] = biological target: T2, IGS5 polypeptide (His6-tagged IGS5 ectodomain); assay: Enzyme inhibition assay: IGS5 conversion of the Big-ET-1 analogue 17 aa Big-ET (HPLC); format: biochemical; settings: for Inhibition of IGS5 (result in words): conversion of Big-ET-1 analogue 17 aa Big-ET; for IC50: substrate 17 aa Big-ET, 60 min, 37° C., read-out: Inhibition of IGS5 polypeptide's activity to convert the Big-ET-1 analogue 17 aa Big-ET, IC50
Experimental: as §1
All test compounds were dissolved in DMSO at 10 mM and were further diluted with assay buffer.
A quantity of 70 μl, of the assay buffer, of 10 μl enzyme working solution (10 μg/ml) and of 10 μl test compound solution were mixed in an Eppendorf vial and preincubated at 37° C. for 15 minutes. Then, 10 μl substrate stock solution was added and the reaction mixture was incubated at 37° C. for 60 minutes to allow for enzymatic hydrolysis. Subsequently the enzymatic reaction was terminated by heating at 95° C. for 5 minutes. After centrifugation (Heraeus Biofuge B, 3 min) the supernatant was subjected to HPLC analysis.
as §2, §3
% Inhibition: The increasing fluorescence signal of the HPLC-peak of the peptide with the unquenched Mca-fluorophor after hydrolysis was taken as the basis for any calculation. This signal was compared for the samples with and without inhibitor and % inhibition was calculated on basis of the respective peak areas. If non labeled peptide substrates were used, basis of the calculation of % inhibition was the peak area of the remaining undegraded peptide substrate for an inhibitory test compound containing sample (inhib) in comparison to samples containing only peptide without addition of any IGS5 enzyme activity (blank) and to samples containing peptide and enzyme without inhibitor (control) according to the following equation % inhib=100*((Ainhib−Acontrol)/(Ablank−Acontrol)) All samples were run in duplicate and mean values were used. A standard inhibitor (10 nM and 100 nM Phosphoramidon) and/or a solvent control (0.1%) was added to each assay run.

[4] = 100 μl assay volume, 100 ng IGS5 polypeptide

| Molecule | % Hydrolysis by SEP (Ikeda, Emoto et al., 1999) [1] [%] | % Hydrolysis by IGS5 Polypeptide [2, 4] | Inhibition of IGS5 (result in words) [3] | IC50 [3] [nM] | Hydrolysis by IGS5 in vitro (result in words) [2] | also measured |
| --- | --- | --- | --- | --- | --- | --- |
| angiotensin-1 (DRVYIHPFHL) [Angiotensin 1] | >95 | 15*** % |  |  |  | Formation of angiotensin II on degradation by IGS5 [2]: ***degradation of angiotensin I does not result in formation of angiotensin II |
| substance P | >95 | 100% |  |  |  |  |
| CC(C)C[C@H](NP(=O)(O)O[C@@H]1O[C@@H](C)[C@H](O)[C@@H](O)[C@H]1O)C(=O)N[C@@H](Cc1c[nH]c2ccccc12)C(=O)O [Phosphoramidon] |  |  | inhibited; also recorded: inhibition | 18 |  |  |
| O=C(O)CNC(=O)C(CS)Cc1ccccc1 (centres unmarked) [Thiorphan] |  |  | not efficiently inhibited; also recorded: no inhibition | > 1000 |  |  |
| O=C(O)C(Cc1ccc2c(c1)oc1ccccc12)NCP(=O)(O)O (centres unmarked) [CGS-35066] |  |  | not inhibited; also recorded: no inhibition | 1300 |  |  |
| CC[C@H](C)[C@H](NC(=O)[C@H](CC(=O)O)NC(=O)[C@H](CC(C)C)NC(=O)[C@H](Cc1c[nH]cn1)NC(=O)[C@@H]1CSSC[C@H](N)C(=O)N[C@@H](CO)C(=O)N[C@H]2CSSC[C@H](NC(=O)[C@H](CCC(=O)O)NC(=O)[C@H](CCCCN)NC(=O)[C@H](CC(=O)O)NC(=O)[C@H](CCSC)NC(=O)[C@H](CC(C)C)NC(=O)[C@H](CO)NC(=O)[C@H](CO)NC2=O)C(=O)N[C@@H](C(C)C)C(=O)N[C@@H](Cc2ccc(O)cc2)C(=O)N[C@@H](Cc2ccccc2)C(=O)N1)C(=O)N[C@H](C(=O)N[C@@H](Cc1c[nH]c2ccccc12)C(=O)O)[C@@H](C)CC [ET-1, endothelin] | 92 | <30% |  |  | hydrolyze |  |
| Mca-Asp-Ile-Ala-Trp-Phe-Dpa-Thr-Pro-Glu-His-Val-Val-Pro-Tyr-Gly-Leu-Gly-COOH (Mca-DIAWF[Dpa]TPEHVVPYGLG-OH; SMILES CC[C@H](C)[C@H](NC(=O)[C@H](CC(=O)O)NC(=O)Cc1cc(=O)oc2cc(OC)ccc12)C(=O)N[C@@H](C)C(=O)N[C@@H](Cc1c[nH]c2ccccc12)C(=O)N[C@@H](Cc1ccccc1)C(=O)N[C@@H](CNc1ccc([N+](=O)[O-])cc1[N+](=O)[O-])C(=O)N[C@H](C(=O)N1CCC[C@H]1C(=O)N[C@@H](CCC(=O)O)C(=O)N[C@@H](Cc1c[nH]cn1)C(=O)N[C@H](C(=O)N[C@H](C(=O)N1CCC[C@H]1C(=O)N[C@@H](Cc1ccc(O)cc1)C(=O)NCC(=O)N[C@@H](CC(C)C)C(=O)NCC(=O)O)C(C)C)C(C)C)[C@@H](C)O) [17 aa Big ET 1] |  | 41% |  |  |  |  |
| CC[C@H](C)[C@@H]1NC(=O)[C@H](CCCNC(=N)N)NC(=O)[C@H](CC(=O)O)NC(=O)[C@H](CCSC)NC(=O)[C@H](CCCNC(=N)N)NC(=O)CNC(=O)CNC(=O)[C@H](Cc2ccccc2)NC(=O)[C@@H](NC(=O)[C@H](CO)NC(=O)[C@H](CO)NC(=O)[C@H](CCCNC(=N)N)NC(=O)[C@H](CCCNC(=N)N)NC(=O)[C@H](CC(C)C)NC(=O)[C@@H](N)CO)CSSC[C@@H](C(=O)N[C@@H](CC(N)=O)C(=O)N[C@@H](CO)C(=O)N[C@@H](Cc2ccccc2)C(=O)N[C@@H](CCCNC(=N)N)C(=O)N[C@@H](Cc2ccc(O)cc2)C(=O)O)NC(=O)CNC(=O)[C@H](CC(C)C)NC(=O)CNC(=O)[C@H](CO)NC(=O)[C@H](CCC(N)=O)NC(=O)[C@H](C)NC(=O)CNC1=O [ANP, atrial natriuretic peptide] | >95 | 5% |  |  | hydrolyze | % Hydrolysis by IGS5 Polypeptide ([2]; 500 ng IGS5 polypeptide): 80% |
| RPPGFSPFR [Bradykinin, bradykinin] |  | 100% |  |  |  | % Hydrolysis by IGS5 Polypeptide ([2]; 10 ng IGS5 polypeptide): 62% |
| big endothelin (CSCSSLMDKECVYFCHLDIIWVNTPEHVVPYGLGSPRS) [Big ET-1] | 42 |  |  |  | hydrolyze |  |
